What was measured:
burn wounds = experiment: Burn wounds, 15% body surface, treatment started 50 days after burning (rats); assay type: in vivo, Sprague-Dawley rats; settings: 15% burn, open wounds after 50 days placebo; 1% BAC-3 ointment, tapering schedule
Text: The wound surface areas tested were of two different sizes. One size to 7% of the body surface, which enables one to compare the rate of wound healing with different percentage of BAC-3 and the other size to 15% of the body surface, which is a sufficient size so that healing could not occur by contraction alone. On the other hand, the total wound surface area should not cause major systematic problems. The latter can be concluded from undisturbed weight gain of the animals. The standard animal burn was performed by techniques and device described by Walker. The burning devices were prepared using a model device ordered from U.S. Army Surgical Research Unit, Experimental Surgery, Army Medical Center, Fort Sam Houston, Tex. 78234. The devices had apertures which enabled exposure of 7% and 15% of the total rat skin surface. The surface of the skin was measured for every animal using Mech's formula: A=kW^2/3; A=surface area in cm^2; W=body weight in grams; k=10.
Method of burning. Each animal was anesthetized with sodium pentobarbital administered i/p (5 mg/25 g). (Producer: Veterinary Laboratory Inc. Lenexa, Kans.). The hair over the dorsum was clipped with animal clippers. The animal was placed supine in the burning device and the extremities were tied; the malleable retractor was placed over the animal and secured snugly with plastic straps. […]

incision wounds = experiment: Tensile strength of incision wounds (rats); assay type: in vivo, Sprague-Dawley rats; settings: 0.1% BAC-3; 21 days after wounding; p<0.05 by ANOVA; FIG. 3
Procedure: The wounding of animals was performed according to the Protocol for Animal Use and Care at the University of California-Davis (hereafter UC-Davis). The entire animal protocol required 70 Sprague-Dawley rats: 30 rats for incision wounds and 40 rats for burn wounds. Among them 36 rats were burned over 7% of their skin and 4 rats were burned over 15% of their skin. Incision wounds of whole skin and burn wounds were treated topically with 2 test doses of the pharmaceutical preparation of di-rhamnolipid BAC-3. Each dose contained a). 1%, and 0.1% of active di-rhamnolipid (BAC-3) in eucerin (eucerin=71.5 g Vaselinum album (Producer: D.E.A. Hamburg); 23.8 g Lanolinum (Producer I.O.I. Hamburg); 4.7 g Cholesterin (Producer: Solvay, Wiena, Austria); Water Number: 320); or b). 1%; 0.1% active rhamnolipid (BAC-3) with antiseptic (chlorhexidine hydrochloride-PLIVA-Zagreb). Eucerin with BAC-3 was administrated twice daily during healing. The same experiment had one control group without the treatment, and one control group which was treated with ointment+1% chlorhexidine hydrochloride. […]
Tensile Strength Determination. […] The tensile strength of healthy skin was measured in killed animals from each group.
Effect of BAC-3 on Tensile Strength of Incision Wounds (FIG. 3) with and without chlorhexidine hydrochloride. The tensile strength of incision wounds was measured 21 days after wounding. […]

For CCCCCCCC(CC(=O)O)OC(=O)CC(CCCCCCC)OC1OC(C)C(O)C(O)C1OC1OC(C)C(O)C(O)C1O [BAC-3, (α-L-rhamnopyranosyl-(1,2)-α-L-rhamnopyranosyl)-3-hyroxydecanoyl-3-hydroxydecanoic acid], the “time to whole epithelization in all animals” value (burn wounds) was 30 days and the “tensile strength of incision wounds vs corresponding vehicle” value (incision wounds) was “significantly lower”.

— US7129218B2, “Use of rhamnolipids in wound healing, treatment and prevention of gum disease and periodontal regeneration” (Paradigm Biomedical, Inc., priority 1999, dated 2006)
